Laboratory results from PubChem BioAssay (NCI).
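Five concentrations, 48 hours, 96-well plates. GI50 marks 50% less growth. TGI: concentration producing complete growth inhibition.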

What was measured:
Assay in all cases: growth of human tumour cells (NCI), 48 h; in the data active = GI50 below about 0.43 µM; inactive = the rest
MDA-MB-231 breast = test system: MDA-MB-231 breast
HT29 colon = test system: HT29 colon
UACC-62 melanoma = test system: UACC-62 melanoma
NCI-H23 lung = test system: NCI-H23 lung
T-47D breast = test system: T-47D breast
DU-145 prostate = test system: DU-145 prostate
MCF7 breast = test system: MCF7 breast
MOLT-4 leukemia = test system: MOLT-4 leukemia
LOX IMVI melanoma = test system: LOX IMVI melanoma
SF-295 CNS = test system: SF-295 CNS
UO-31 renal = test system: UO-31 renal
TK-10 renal = test system: TK-10 renal
SF-268 CNS = test system: SF-268 CNS
HCT-15 colon = test system: HCT-15 colon
OVCAR-4 ovarian = test system: OVCAR-4 ovarian
SN12C renal = test system: SN12C renal
OVCAR-5 ovarian = test system: OVCAR-5 ovarian
MDA-MB-435 = test system: MDA-MB-435
EKVX NSCLC = test system: EKVX NSCLC
OVCAR-8 ovarian = test system: OVCAR-8 ovarian
ACHN renal = test system: ACHN renal
A549 NSCLC = test system: A549 NSCLC
SNB-75 CNS = test system: SNB-75 CNS
SK-OV-3 ovarian = test system: SK-OV-3 ovarian
NCI-H226 lung = test system: NCI-H226 lung
UACC-257 melanoma = test system: UACC-257 melanoma
HL-60(TB) leukemia = test system: HL-60(TB) leukemia
NCI-H460 lung = test system: NCI-H460 lung
SW-620 colon = test system: SW-620 colon
RXF 393 renal = test system: RXF 393 renal
MALME-3M melanoma = test system: MALME-3M melanoma
K-562 leukemia = test system: K-562 leukemia
CAKI-1 renal = test system: CAKI-1 renal
SF-539 CNS = test system: SF-539 CNS
PC-3 prostate = test system: PC-3 prostate
BT-549 breast = test system: BT-549 breast
RPMI-8226 leukemia = test system: RPMI-8226 leukemia
HOP-92 NSCLC = test system: HOP-92 NSCLC
U251 CNS = test system: U251 CNS
HCT-116 colon = test system: HCT-116 colon
CCRF-CEM leukemia = test system: CCRF-CEM leukemia
HS 578T breast = test system: HS 578T breast
A498 renal = test system: A498 renal
SR leukemia = test system: SR leukemia
OVCAR-3 ovarian = test system: OVCAR-3 ovarian
SNB-19 CNS = test system: SNB-19 CNS
786-0 renal = test system: 786-0 renal
HOP-62 NSCLC = test system: HOP-62 NSCLC
KM12 colon = test system: KM12 colon
M14 melanoma = test system: M14 melanoma
COLO 205 colon = test system: COLO 205 colon
IGROV1 ovarian = test system: IGROV1 ovarian
SK-MEL-28 melanoma = test system: SK-MEL-28 melanoma
NCI/ADR-RES ovarian = test system: NCI/ADR-RES ovarian
NCI-H522 lung = test system: NCI-H522 lung
SK-MEL-5 melanoma = test system: SK-MEL-5 melanoma
SK-MEL-2 melanoma = test system: SK-MEL-2 melanoma

Cc1cc(S(=O)(=O)/N=C(/[N-]S(=O)(=O)c2ccc(Cl)cc2)[n+]2ccc(N(C)C)cc2)c(SCC(=O)O)cc1Cl
46.2 µM: TGI (HOP-62 NSCLC)
> 100 µM: TGI (MDA-MB-231 breast) | TGI (HT29 colon) | TGI (UACC-62 melanoma) | TGI (NCI-H23 lung) | TGI (T-47D breast) | TGI (DU-145 prostate) | TGI (MCF7 breast) | TGI (MOLT-4 leukemia) | TGI (LOX IMVI melanoma) | TGI (SF-295 CNS) | TGI (UO-31 renal) | TGI (TK-10 renal) | TGI (SF-268 CNS) | TGI (HCT-15 colon) | TGI (OVCAR-4 ovarian) | TGI (SN12C renal) | TGI (OVCAR-5 ovarian) | TGI (MDA-MB-435) | TGI (EKVX NSCLC) | TGI (OVCAR-8 ovarian) | TGI (ACHN renal) | TGI (A549 NSCLC) | TGI (SNB-75 CNS) | TGI (SK-OV-3 ovarian) | TGI (NCI-H226 lung) | TGI (UACC-257 melanoma) | TGI (HL-60(TB) leukemia) | TGI (NCI-H460 lung) | TGI (SW-620 colon) | TGI (RXF 393 renal) | TGI (MALME-3M melanoma) | TGI (K-562 leukemia) | TGI (CAKI-1 renal) | TGI (SF-539 CNS) | TGI (PC-3 prostate) | TGI (BT-549 breast) | TGI (RPMI-8226 leukemia) | TGI (U251 CNS) | TGI (HCT-116 colon) | TGI (CCRF-CEM leukemia) | TGI (HS 578T breast) | TGI (A498 renal) | TGI (SR leukemia) | TGI (OVCAR-3 ovarian) | TGI (SNB-19 CNS) | TGI (786-0 renal) | TGI (KM12 colon) | TGI (M14 melanoma) | TGI (COLO 205 colon)
54.3 µM: TGI (HOP-92 NSCLC)

COc1cc([C@@H]2C[C@H]2c2cc(SC)n[nH]2)cc(OC)c1OC
70.4 µM: TGI (NCI-H226 lung)
31.8 µM: TGI (SN12C renal)
80.2 µM: TGI (HCT-15 colon)
65.2 µM: TGI (SK-OV-3 ovarian)
45.2 µM: TGI (HS 578T breast)
> 100 µM: TGI (IGROV1 ovarian) | TGI (HT29 colon) | TGI (T-47D breast) | TGI (DU-145 prostate) | TGI (MOLT-4 leukemia) | TGI (SK-MEL-28 melanoma) | TGI (LOX IMVI melanoma) | TGI (UO-31 renal) | TGI (OVCAR-4 ovarian) | TGI (ACHN renal) | TGI (A549 NSCLC) | TGI (SNB-75 CNS) | TGI (SW-620 colon) | TGI (K-562 leukemia) | TGI (U251 CNS) | TGI (CCRF-CEM leukemia) | TGI (SNB-19 CNS)
30.5 µM: TGI (OVCAR-3 ovarian)
29 µM: TGI (SK-MEL-5 melanoma)
active: GI50 (RXF 393 renal) 0.0483 µM
50.7 µM: TGI (UACC-257 melanoma)
67.2 µM: TGI (SK-MEL-2 melanoma)
43.6 µM: TGI (UACC-62 melanoma)
42 µM: TGI (BT-549 breast)
49.3 µM: TGI (NCI/ADR-RES ovarian)
28.5 µM: TGI (SF-295 CNS) | TGI (M14 melanoma)
37.2 µM: TGI (RPMI-8226 leukemia)
37.9 µM: TGI (CAKI-1 renal)
45.1 µM: TGI (OVCAR-8 ovarian)
32.8 µM: TGI (KM12 colon)
44.6 µM: TGI (786-0 renal)
28.8 µM: TGI (HOP-62 NSCLC)
58 µM: TGI (NCI-H23 lung)
37.3 µM: TGI (NCI-H522 lung)
26.5 µM: TGI (MDA-MB-435)
90.1 µM: TGI (OVCAR-5 ovarian)
5.7 µM: TGI (RXF 393 renal)
33.2 µM: TGI (MDA-MB-231 breast)
70 µM: TGI (COLO 205 colon)
inactive: GI50 (IGROV1 ovarian) 18.3 µM | GI50 (MDA-MB-231 breast) 12.1 µM | GI50 (HT29 colon) 26.9 µM | GI50 (UACC-62 melanoma) 14 µM | GI50 (NCI-H23 lung) 21.1 µM | GI50 (T-47D breast) 16.5 µM | GI50 (DU-145 prostate) 17.7 µM | GI50 (MCF7 breast) 18.8 µM | GI50 (MOLT-4 leukemia) 20.3 µM | GI50 (SK-MEL-28 melanoma) 23.5 µM | GI50 (LOX IMVI melanoma) 93.9 µM | GI50 (SF-295 CNS) 10.9 µM | GI50 (UO-31 renal) 23 µM | GI50 (TK-10 renal) 22.5 µM | GI50 (NCI/ADR-RES ovarian) 17.6 µM | GI50 (SF-268 CNS) 15.1 µM | GI50 (HCT-15 colon) 22.8 µM | GI50 (OVCAR-4 ovarian) 26.2 µM | GI50 (SN12C renal) 8.98 µM | GI50 (OVCAR-5 ovarian) 37.9 µM | GI50 (MDA-MB-435) 11.2 µM | GI50 (EKVX NSCLC) 14.9 µM | GI50 (OVCAR-8 ovarian) 14 µM | GI50 (ACHN renal) 30.3 µM | GI50 (A549 NSCLC) 25.9 µM | GI50 (SNB-75 CNS) 26.4 µM | GI50 (SK-OV-3 ovarian) 17.4 µM | GI50 (NCI-H226 lung) 16.9 µM | GI50 (UACC-257 melanoma) 17.7 µM | GI50 (NCI-H460 lung) 17.7 µM | GI50 (NCI-H522 lung) 13.8 µM | GI50 (SK-MEL-5 melanoma) 14.7 µM | GI50 (SW-620 colon) 26.9 µM | GI50 (K-562 leukemia) 21 µM | GI50 (CAKI-1 renal) 15.6 µM | GI50 (PC-3 prostate) 18.1 µM | GI50 (BT-549 breast) 16.2 µM | GI50 (RPMI-8226 leukemia) 12.6 µM | GI50 (U251 CNS) 79.3 µM | GI50 (HCT-116 colon) 23.6 µM | GI50 (CCRF-CEM leukemia) 19.4 µM | GI50 (HS 578T breast) 15.1 µM | GI50 (OVCAR-3 ovarian) 13.2 µM | GI50 (SNB-19 CNS) 35 µM | GI50 (SK-MEL-2 melanoma) 25.6 µM | GI50 (786-0 renal) 18 µM | GI50 (HOP-62 NSCLC) 5.75 µM | GI50 (KM12 colon) 15.2 µM | GI50 (M14 melanoma) 13.9 µM | GI50 (COLO 205 colon) 20.5 µM
52.5 µM: TGI (TK-10 renal)
85.7 µM: TGI (HCT-116 colon)
57.2 µM: TGI (PC-3 prostate)
50 µM: TGI (SF-268 CNS)
41.7 µM: TGI (NCI-H460 lung)
41.2 µM: TGI (MCF7 breast)
40.2 µM: TGI (EKVX NSCLC)
